Results: US12552733B2, “Terpenophenolic compounds and their use” (Phytotherapeutix Ltd., priority 2020, dated 2026)

Key:
[1] = PK study: plasma levels after i.p. administration, LC/MS/MS; type: in vivo, Mouse; conditions: 100 mg/kg i.p.; sampled at 30, 60, 120 min
Protocol: For testing of each compound, six CD-1 mice were divided into 2 groups of 3. Animals were administered test agents via i.p. route and blood collected at 30, 60 and 120 min, administration as outlined in Table 1. Blood samples were collected in EDTA-coated microfuge tubes, inverted and placed on an ice pack prior to centrifugation and storage at −70° C. Samples were extracted using an acetonitrile/protein precipitation method and levels of test agent analysed by LC/MS/MS.
Bioanalytical detection method was developed using an LC/MS/MS (ABI 5000 or 5500). Standard curves of the test agent were prepared in an appropriate biological matrix (plasma). Levels of test article was measured in plasma as per the developed method.
Levels were determined by extrapolating the concentration from a standard curve using linear regression analysis. Method development and bioanalysis was performed by a partner company, Keystone Bioanalytical (North Wales, PA, US).

[2] = test system: PTZ mouse model of seizures; assay: PTZ-induced seizures study; type: in vivo; conditions: 30 min pretreatment; for protection from tonic hindlimb seizures (PTZ) vs vehicle-treated animals / protection from clonic seizures (PTZ) vs vehicle-treated animals: test compounds 200 mg/kg IP, CBD 100 mg/kg IP, 60 min, PTZ 100 mg/kg i.p.
Protocol: Mice were acclimated to the procedure room for at least 30 minutes. Pentylenetetrazole (PTZ; SigmaAldrich) was formulated in water to a concentration of 20 mg/ml. Injections of PTZ were made at a volume of 5 mI/kg to produce a final dose of 100 mg/kg. PTZ injections were i.p. Diazepam was formulated at a concentration of 2 mg/mL and administered at volume of 10 mL/kg to produce a final dose of 20 mg/kg. Time to initial myoclonic and tonic hindlimb extensor response was measured. A 10-min maximum latency to seizure was imposed.
(§1) The data was expressed as mean+SEM. Statistical analysis using one-way ANOVA with post-hoc Fisher's LSD test was used to determine statistical significance compared to the vehicle-treated animals.
(§2) Animals received treatments according to Table 3.
as §2

[3] = test system: MES mouse model of seizures; assay: Maximal Electroshock (MES) seizure study; type: in vivo; conditions: test compounds 200 mg/kg IP, 30 min pretreatment, CBD 100 mg/kg IP, 60 min, one-way ANOVA, Fisher's LSD
Protocol: Animals were administered vehicle, phenytoin, CBD or test compounds and gross behavioural observations were done for 30 minutes. Proparacaine hydrochloride ophthalmic solution (Butler AHS, Dublin, OH) was applied approximately 10 minutes prior to testing to numb the eyes. Thirty to sixty minutes after administration of vehicle,phenytoin, CBD or test compounds, 0.9% saline solution (sodium chloride in water) was applied to both eyes and electro-convulsions were produced by an alternating current delivered via corneal electrodes by a Rodent Shocker generator at a frequency of 60 Hz (Harvard Apparatus, Holliston, Mass.). Parameters for the ICR:CD1 mice were 0.2 s stimulus duration at an intensity of 25 mA. The criterion for seizure occurrence were presence of a tonic hind limb extension, defined as extension exceeding a 90-degree angle with the plane of the body. […] Any seizure activity (i.e. clonic seizures defined as rapid spasms or jerky movements of the limbs) prior to tonic hind limb seizure were recorded as presence of seizure (noted as 1-yes, 0-no). After seizure exhibition or 20-second timeout, mice were euthanized via cervical dislocation.
as §1
The results of the MES study are illustrated in FIG. 4: MES: Latency in seconds for seizures to occur in mice. Animals received treatments according to Table 2. […] Data are expressed as the average ±SEM. Data were analysed by One-way ANOVA, followed by a post-hoc Fisher's LSD test. ***P<0.001, *P<0.05, n=1 PTZ Study

Q: Which results are given for `C=C(C)[C@@H]1CCC(C)=C[C@H]1c1c(O)cc(CCc2ccc(O)cc2)cc1O` [(−)-trans-CBD-PET-OH, (1′R,2′R)-4-(4-hydroxyphenethyl)-5′-methyl-2′-(prop-1-ene-2-yl)-1′,2′,3′,4′-tetrahydro-[1,1′-biphenyl]-2,6-diol]?
A: time at which maximal concentration in plasma was achieved after the injection [1]: 30 min; protection from tonic hindlimb seizures (PTZ) vs vehicle-treated animals ([2]; listed as (−)-trans CBD-PET-OH): significant effect, protecting from tonic hindlimb seizures; protection from tonic hindlimb seizures (PTZ) vs vehicle-treated animals ([2]; listed as CBD-PET-OH): particularly effective against tonic seizures; effect in the MES study (latency to tonic hindlimb seizure) vs vehicle ([3]; listed as (−)-trans CBD-PET-OH): significantly different from vehicle; effect in the MES study (latency to tonic hindlimb seizure) vs vehicle ([3]; listed as CBD-PET-OH): effective

Q: With `CN1C(=O)CN=C(c2ccccc2)c2cc(Cl)ccc21` [diazepam, reference compound] as the molecule, how does the “protection from the seizures (PTZ; clonic and tonic hindlimb, FIGS. 5 and 6)” value ([2]; PO, p<0.05) read?
A: 100%

Q: For `C=C(C)[C@@H]1CCC(C)=C[C@H]1c1c(O)cc(CCc2ccccc2)cc1O` [(−)-trans-CBD-PET, (1′R,2′R)-5′-methyl-4-phenethyl-2′-(prop-1-ene-2-yl)-1′,2′,3′,4′-tetrahydro-[1,1′-biphenyl]-2,6-diol], which “time at which maximal concentration in plasma was achieved after the injection” value [1] is on record?
A: 30 min

Q: And the “protection from clonic seizures (PTZ) vs vehicle-treated animals” value ([2]; listed as (−)-trans CBD-PET)?
A: significant protection from clonic seizures

Q: And the “protection from tonic hindlimb seizures (PTZ) vs vehicle-treated animals” value ([2]; listed as (−)-trans CBD-PET)?
A: significant effect, protecting from tonic hindlimb seizures

Q: And the “protection from clonic seizures (PTZ) vs vehicle-treated animals” value ([2]; listed as CBD-PET)?
A: showing activity against both clonic and tonic seizures

Q: What about the “protection from tonic hindlimb seizures (PTZ) vs vehicle-treated animals” value ([2]; listed as CBD-PET) of the same molecule?
A: showing activity against both clonic and tonic seizures

Q: For `C=C(C)[C@@H]1CCC(C)=C[C@H]1c1c(O)cc(CCCCC)cc1O` [Cannabidiol, reference compound], which “protection from clonic seizures (PTZ) vs vehicle-treated animals” value [2] is on record?
A: did not produce a significant effect

Q: What about the “protection from tonic hindlimb seizures (PTZ) vs vehicle-treated animals” value [2] of the same molecule?
A: did not produce a significant effect

Q: And the “effect in the MES study (latency to tonic hindlimb seizure) vs vehicle” value [3]?
A: did not produce a significant effect
